From US9920069B2, “Compounds for treatment of fluoroquinolone-resistant bacteria” (The Board of Trustees of the University of Illinois, priority 2014, dated 2018)

Columns and labels:
[1] = test system: VRE clinical isolate C21667; format: cell-based, E. faecalis
[2] = test system: VRE clinical isolate SL152; format: cell-based, E. faecium
[3] = test system: VRE clinical isolate C27569; format: cell-based, E. faecium
[4] = test system: VRE clinical isolate S234; assay: organism not typed; format: cell-based, E. faecalis
[5] = test system: VRE clinical isolate S557; assay: organism not typed; format: cell-based, E. faecium
[6] = test system: VRE clinical isolate S344; format: cell-based, E. faecium
[7] = test system: VRE clinical isolate C28535; format: cell-based, E. faecalis
VRE clinical isolate D1 = assay: organism not typed; format: cell-based, E. faecium

Measured: MIC

Cc1cc(=O)n(C)c2c3c4c(cc12)c(C)cc(=O)n4CO3 [DNM, deoxynybomycin]
0.25 µg/mL: all assays above

CCn1c(=O)cc(C)c2cc3c(C)cc(=O)n4c3c(c21)OC4 [DNM-2]
0.25 µg/mL: [3] | [7]
